The record followed here is ChEMBL document CHEMBL2169741, “Analysis of the discriminative inhibition of mammalian digestive lipases by 3-phenyl substituted 1,3,4-oxadiazol-2(3H)-ones” (Eur J Med Chem, 2012).

SMILES strings stand for the structures. Calls of active or inactive are those of the source. The calls are words filed in the database; no cut-off is given here. Some results are limits rather than exact numbers.

For test [1], the target named is T1, Pancreatic lipase-related protein 2 (Homo sapiens) (UniProt P54317).
T1 sequence (whole entry): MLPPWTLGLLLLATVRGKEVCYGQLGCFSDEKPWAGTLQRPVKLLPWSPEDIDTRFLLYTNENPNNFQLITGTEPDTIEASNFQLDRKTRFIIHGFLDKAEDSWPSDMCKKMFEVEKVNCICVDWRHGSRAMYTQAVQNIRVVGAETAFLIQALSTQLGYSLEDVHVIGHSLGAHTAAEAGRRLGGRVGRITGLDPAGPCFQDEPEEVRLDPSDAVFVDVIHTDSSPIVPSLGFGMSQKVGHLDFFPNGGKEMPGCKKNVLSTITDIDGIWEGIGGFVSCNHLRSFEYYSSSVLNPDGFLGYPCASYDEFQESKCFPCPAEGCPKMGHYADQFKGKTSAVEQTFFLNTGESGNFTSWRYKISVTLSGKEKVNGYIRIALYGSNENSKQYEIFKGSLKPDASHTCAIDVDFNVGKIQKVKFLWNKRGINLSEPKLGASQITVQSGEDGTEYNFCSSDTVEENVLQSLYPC
The test can be described thus: Inhibition of recombinant HPLRP2 expressed in Pichia pastoris at 20 molar excess after 30 mins in presence of NaTDC.

For test [2], the target named is T2, Pancreatic triacylglycerol lipase (Sus scrofa) (UniProt P00591).
T2 sequence (whole entry): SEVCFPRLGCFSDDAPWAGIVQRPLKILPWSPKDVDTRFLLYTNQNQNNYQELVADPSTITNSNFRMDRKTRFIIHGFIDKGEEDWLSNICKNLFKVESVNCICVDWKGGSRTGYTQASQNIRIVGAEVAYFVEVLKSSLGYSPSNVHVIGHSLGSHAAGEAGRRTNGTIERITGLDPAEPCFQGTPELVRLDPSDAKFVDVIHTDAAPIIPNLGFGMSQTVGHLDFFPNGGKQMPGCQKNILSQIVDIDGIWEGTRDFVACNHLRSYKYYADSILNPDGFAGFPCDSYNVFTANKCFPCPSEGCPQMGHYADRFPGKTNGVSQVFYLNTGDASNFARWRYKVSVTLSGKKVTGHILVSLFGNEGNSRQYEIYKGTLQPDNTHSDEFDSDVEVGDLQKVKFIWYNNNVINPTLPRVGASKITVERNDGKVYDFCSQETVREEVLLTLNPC
The test can be described thus: Inhibition of PPL assessed as half inactivation time at 100 molar excess in presence of NaTDC.

Test [3] deals with T3, Pancreatic triacylglycerol lipase (Homo sapiens) (UniProt P16233).
T3 sequence (whole entry): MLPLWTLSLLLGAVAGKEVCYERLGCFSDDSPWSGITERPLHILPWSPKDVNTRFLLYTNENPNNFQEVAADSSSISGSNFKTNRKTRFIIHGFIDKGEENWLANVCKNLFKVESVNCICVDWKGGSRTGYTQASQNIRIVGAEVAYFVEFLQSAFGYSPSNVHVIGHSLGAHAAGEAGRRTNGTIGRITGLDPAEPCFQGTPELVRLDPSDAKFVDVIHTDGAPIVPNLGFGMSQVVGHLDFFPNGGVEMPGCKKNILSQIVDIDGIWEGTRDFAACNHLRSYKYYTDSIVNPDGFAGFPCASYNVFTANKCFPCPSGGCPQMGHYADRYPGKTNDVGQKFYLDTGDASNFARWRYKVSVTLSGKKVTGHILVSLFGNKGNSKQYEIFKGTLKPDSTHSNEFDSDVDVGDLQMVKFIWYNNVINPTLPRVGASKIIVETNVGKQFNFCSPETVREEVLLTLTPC
The test can be described thus: Inhibition of recombinant HPL expressed in Pichia pastoris assessed as half inactivation time at 100 molar excess in presence of NaTDC.

The target of test [4] is T4, Gastric triacylglycerol lipase (Canis lupus familiaris) (UniProt P80035).
T4 sequence (whole entry): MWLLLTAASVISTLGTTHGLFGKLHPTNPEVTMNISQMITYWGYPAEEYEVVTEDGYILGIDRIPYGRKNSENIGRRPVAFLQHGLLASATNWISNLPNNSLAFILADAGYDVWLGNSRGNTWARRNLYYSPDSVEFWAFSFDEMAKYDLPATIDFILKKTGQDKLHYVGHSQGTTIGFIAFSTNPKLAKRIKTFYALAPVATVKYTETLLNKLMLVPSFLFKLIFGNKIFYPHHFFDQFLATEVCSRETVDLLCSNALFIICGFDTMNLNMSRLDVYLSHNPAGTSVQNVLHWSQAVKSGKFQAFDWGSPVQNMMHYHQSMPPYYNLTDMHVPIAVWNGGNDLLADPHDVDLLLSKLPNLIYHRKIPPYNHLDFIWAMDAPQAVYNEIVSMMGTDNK
The test can be described thus: Inhibition of recombinant DGL expressed in transgenic maize at 20 molar excess after 30 mins in presence of NaTDC.

Test [5] addresses T4, Gastric triacylglycerol lipase (Canis lupus familiaris). The test can be described thus: Inhibition of recombinant DGL expressed in transgenic maize at 2 molar excess after 30 mins in presence of NaTDC.
Test [6] deals with T3, Pancreatic triacylglycerol lipase (Homo sapiens). The test can be described thus: Inhibition of recombinant HPL expressed in Pichia pastoris at 400 molar excess after 30 mins in presence of NaTDC.
Test [7] has as its target T5, Bile salt-activated lipase (Homo sapiens) (UniProt P19835).
T5 sequence (whole entry): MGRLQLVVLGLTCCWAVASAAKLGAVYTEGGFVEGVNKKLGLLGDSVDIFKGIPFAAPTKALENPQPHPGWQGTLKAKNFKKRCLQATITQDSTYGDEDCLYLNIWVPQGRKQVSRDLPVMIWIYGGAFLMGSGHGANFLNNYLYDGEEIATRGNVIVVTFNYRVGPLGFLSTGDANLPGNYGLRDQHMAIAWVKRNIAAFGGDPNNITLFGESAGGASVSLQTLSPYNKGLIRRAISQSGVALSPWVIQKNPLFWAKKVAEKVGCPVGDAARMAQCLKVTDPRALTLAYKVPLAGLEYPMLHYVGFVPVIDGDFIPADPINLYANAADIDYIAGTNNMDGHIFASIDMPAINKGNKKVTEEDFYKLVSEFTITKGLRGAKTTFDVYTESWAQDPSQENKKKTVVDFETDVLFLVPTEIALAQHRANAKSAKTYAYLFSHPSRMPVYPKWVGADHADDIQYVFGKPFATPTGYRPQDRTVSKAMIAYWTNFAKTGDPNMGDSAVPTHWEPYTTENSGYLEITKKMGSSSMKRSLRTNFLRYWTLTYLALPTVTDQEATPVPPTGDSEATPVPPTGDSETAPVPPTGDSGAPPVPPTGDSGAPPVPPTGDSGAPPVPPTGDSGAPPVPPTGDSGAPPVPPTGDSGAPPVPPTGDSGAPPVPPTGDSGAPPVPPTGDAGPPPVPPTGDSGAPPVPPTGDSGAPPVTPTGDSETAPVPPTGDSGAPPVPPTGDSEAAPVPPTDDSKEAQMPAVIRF
The test can be described thus: Inhibition of human pancreatic CEH assessed as half inactivation time at 4 molar excess.

Test [8] has as its target T2, Pancreatic triacylglycerol lipase (Sus scrofa). The test can be described thus: Inhibition of PPL at 400 molar excess after 30 mins in presence of NaTDC.
The target of test [9] is T4, Gastric triacylglycerol lipase (Canis lupus familiaris). The test can be described thus: Inhibition of recombinant DGL expressed in transgenic maize after 30 mins in presence of NaTDC.

For `CCCCCCCCCCC[C@@H](C[C@@H]1OC(=O)[C@H]1CCCCCC)OC(=O)[C@H](CC(C)C)NC=O`, the inhibition – broadly, how much of the control response was suppressed – in test [1] came out at 86.3%; in test [4], 56.3%; in test [5], 51.5%; in test [6], 85%; in test [8] it was 90.9%. For the same compound, the T1/2 was determined as 1.66 min in test [2], 1.64 min in test [3] and 0.52 min in test [7].

Turning to `COc1nn(-c2ccc(Oc3ccccc3)cc2)c(=O)o1`, the inhibition in test [1] is 88.8%; in [4] it was 92.7%; in test [5] it was 12.4%; in test [6], 20%; in test [8], 87.1%. The T1/2 in [2] is 1.84 min; in test [3], over 120 min; in test [7] it was 1.43 min. For the same compound, the XI50 in test [9] stood at 7.12 molar excess.

On to `COc1nn(-c2ccccc2)c(=O)o1`, for which the inhibition in test [1] came to 92.7%; in test [4], 6.6%; in [5], 1.4%; in test [8], 35.8%. For the same compound, the figures for the T1/2 in test [2] and in test [7] were over 60 min and 1 min, respectively. Further, the inhibition entry in [3] and in [6] was “inactive” each time. Moreover, the XI50 in test [9] was over 40 molar excess.

In the case of `COc1nn(-c2cccc(Oc3ccccc3)c2)c(=O)o1`, the inhibition in test [1] was 81.2%; in test [4], 81.9%; in [5], 10.9%; in [6] it was 42.7%; in test [8], 87.7%. In addition, the T1/2 in [2] was 1.69 min; in test [3] it was over 120 min; in [7], 0.9 min. In test [9], the XI50 was found to be 8.33 molar excess.
